Molecules are shown by their SMILES. Bounds are passed on as bounds.

The target of one assay is IRAK4 enzyme (Homo sapiens (Human), UniProt Q9NWZ3). Nature of the assay: biochemical. Type of assay: biochemical. The note with it: IRAK4 enzyme, TR-FRET, 500 μM ATP. On the technique in general: In TR-FRET formats the signal depends on donor and acceptor labels being close together.
The test system of another assay is TNFα. Nature of the assay: cells. Type of assay: cell-based, human. The following applies: Homo sapiens, Monocyte, LPS-stimulated human monocytes, TNFα by TR-FRET; read-out: EC50 TNF.

IRAK4 enzyme, sequence (Q9NWZ3 whole entry): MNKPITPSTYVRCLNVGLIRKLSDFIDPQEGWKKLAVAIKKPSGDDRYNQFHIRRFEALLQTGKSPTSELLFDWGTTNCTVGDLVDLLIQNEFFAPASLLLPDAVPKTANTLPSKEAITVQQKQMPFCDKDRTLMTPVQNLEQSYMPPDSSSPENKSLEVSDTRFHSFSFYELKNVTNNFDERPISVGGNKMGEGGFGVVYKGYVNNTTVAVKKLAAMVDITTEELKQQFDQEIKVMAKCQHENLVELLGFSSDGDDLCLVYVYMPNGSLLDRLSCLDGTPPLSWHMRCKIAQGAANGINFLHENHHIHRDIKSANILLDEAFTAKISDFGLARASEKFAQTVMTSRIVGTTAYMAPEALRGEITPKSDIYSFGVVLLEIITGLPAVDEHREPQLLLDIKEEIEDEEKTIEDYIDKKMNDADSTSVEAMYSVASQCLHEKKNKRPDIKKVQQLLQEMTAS

With `CC(C)(O)[C@H](F)CNC(=O)c1cnc(-c2ccc3cc(C#N)cnn23)cc1Nc1ccc(C2(N3CCOC3=O)CC2)cc1` [Example 876, (R)-6-(3-cyanopyrrolo[1,2-b]pyridazin-7-yl)-N-(2-fluoro-3-hydroxy-3-methylbutyl)-4-((4-(1-(2-oxooxazolidin-3-yl)cyclo-propyl)phenyl)amino) nicotinamide], the IC50 (in general, the concentration needed to halve the response being measured) on IRAK4 enzyme is < 0.001 µM. Besides, the EC50 (as a rule, the concentration needed to bring the measured effect to its halfway point) in the assay on TNFα was 0.024 µM.

As for `CC(C)(O)[C@H](F)CNC(=O)c1cnc(-c2ccc3cc(C#N)cnn23)cc1Nc1ccc(N2CCCC2)nc1` [Example 877, (R)-6-(3-cyano-pyrrolo[1,2-b]pyridazin-7-yl)-N-(2-fluoro-3-hydroxy-3-methylbutyl)-4-((6-(pyrrolidin-1-yl)pyridin-3-yl)amino) nicotinamide], the IC50 at IRAK4 enzyme turned out to be 0.002 µM. The EC50 in the assay on TNFα was found to be 0.046 µM.

`CC(=O)NC[C@@H]1CCCN1c1ccc(Nc2cc(-c3ccc4cc(C#N)cnn34)ncc2C(=O)NC[C@@H](F)C(C)(C)O)cn1` [Example 878, 4-((6-((S)-2-(acetamidomethyl)pyrrolidin-1-yl)pyridin-3-yl)amino)-6-(3-cyanopyrrolo[1,2-b]pyridazin-7-yl)-N-((R)-2-fluoro-3-hydroxy-3-methylbutyl)nicotinamide] came in with an IC50 against IRAK4 enzyme of 0.002 µM. Besides, the concentration giving a half-maximal response (EC50) with TNFα was determined as 0.141 µM.

In the case of `COC(=O)NC[C@@H]1CCCN1c1ccc(Nc2cc(-c3ccc4cc(C#N)cnn34)ncc2C(=O)NC[C@@H](F)C(C)(C)O)cn1` [Example 879, methyl (((S)-1-(5-((2-(3-cyanopyrrolo[1,2-b]pyridazin-7-yl)-5-(((R)-2-fluoro-3-hydroxy-3-methylbutyl)carbamoyl)pyridin-4-yl)amino)pyridin-2-yl)pyrrolidin-2-yl)methyl)carbamate], at IRAK4 enzyme, the IC50 is 0.001 µM. The EC50 in the assay with TNFα turned out to be 0.225 µM.

Consider `CC(=O)NC1CCN(c2ccc(Nc3cc(-c4ccc5cc(C#N)cnn45)ncc3C(=O)NC[C@@H](F)C(C)(C)O)cn2)CC1` [Example 880, (R)-4-((6-(4-acetamido-piperidin-1-yl)pyridin-3-yl)amino)-6-(3-cyano-pyrrolo[1,2-b]pyridazin-7-yl)-N-(2-fluoro-3-hydroxy-3-methylbutyl) nicotinamide], for which the IC50 at IRAK4 enzyme was < 0.001 µM. Also, in the assay with TNFα, the EC50 came out at 0.058 µM.

In the case of `COC(=O)NC1CCN(c2ccc(Nc3cc(-c4ccc5cc(C#N)cnn45)ncc3C(=O)NC[C@@H](F)C(C)(C)O)cn2)CC1` [Example 881, (R)-methyl (1-(5-((2-(3-cyanopyrrolo[1,2-b]pyridazin-7-yl)-5-((2-fluoro-3-hydroxy-3-methylbutyl)carbamoyl)pyridin-4-yl)amino)pyridin-2-yl)piperidin-4-yl)carbamate], the IC50 at IRAK4 enzyme was < 0.001 µM. Besides, the EC50 in the assay with TNFα is 0.084 µM.

In the case of `CC(C)(O)[C@H](F)CNC(=O)c1cnc(-c2ccc3cc(C#N)cnn23)cc1Nc1cnn([C@@H]2CNC[C@H]2F)c1` [Example 882, 6-(3-cyanopyrrolo[1,2-b]pyridazin-7-yl)-N-((R)-2-fluoro-3-hydroxy-3-methylbutyl)-4-((1-((3R,4R)-4-fluoro-pyrrolidin-3-yl)-1H-pyrazol-4-yl)amino) nicotinamide], the IC50 at IRAK4 enzyme was < 0.001 µM. The EC50 in the assay with TNFα came out at 0.022 µM.

For `CC(C)(O)[C@H](F)CNC(=O)c1cnc(-c2ccc3cc(C#N)cnn23)cc1Nc1cnn([C@@H]2CNC[C@@H]2F)c1` [Example 883, 6-(3-cyanopyrrolo[1,2-b]pyridazin-7-yl)-N-((R)-2-fluoro-3-hydroxy-3-methylbutyl)-4-((1-((3R,4S)-4-fluoro-pyrrolidin-3-yl)-1H-pyrazol-4-yl)amino) nicotinamide], on IRAK4 enzyme, the IC50 was < 0.001 µM. Moreover, the EC50 in the assay with TNFα was 0.09 µM.

Regarding `COC[C@@H]1CCCN1c1ccc(Nc2cc(-c3ccc4cc(C#N)cnn34)ncc2C(=O)NC[C@@H](F)C(C)(C)O)cn1` [Example 884, 6-(3-cyanopyrrolo[1,2-b]pyridazin-7-yl)-N-((R)-2-fluoro-3-hydroxy-3-methylbutyl)-4-((6-((S)-2-(methoxymethyl)pyrrolidin-1-yl)pyridin-3-yl)amino)nicotinamide], the midpoint of inhibition against IRAK4 enzyme, the IC50, lay at 0.002 µM. Further, in the assay with TNFα, the EC50 came out at 0.029 µM.

In turn, `COC[C@@H]1CCN(c2ccc(Nc3cc(-c4ccc5cc(C#N)cnn45)ncc3C(=O)NC[C@@H](F)C(C)(C)O)cn2)C1` [Example 885, 6-(3-cyanopyrrolo[1,2-b]pyridazin-7-yl)-N-((R)-2-fluoro-3-hydroxy-3-methylbutyl)-4-((6-((R)-3-(methoxymethyl)pyrrolidin-1-yl)pyridin-3-yl)amino) nicotinamide] came in with an IC50 against IRAK4 enzyme of 0.001 µM. For the same compound, the EC50 with TNFα turned out to be 0.07 µM.

Compound `CC(=O)NC[C@H]1CN(c2ccc(Nc3cc(-c4ccc5cc(C#N)cnn45)ncc3C(=O)NC[C@@H](F)C(C)(C)O)cn2)CCO1` [Example 886, 4-((6-((S)-2-(acetamido-methyl)morpholino)pyridin-3-yl)amino)-6-(3-cyano-pyrrolo[1,2-b]pyridazin-7-yl)-N-((R)-2-fluoro-3-hydroxy-3-methylbutyl) nicotinamide] came in with an IC50 at IRAK4 enzyme of 0.002 µM. Besides, the EC50 in the assay with TNFα amounted to 0.029 µM.

On IRAK4 enzyme, `COC(=O)NC[C@H]1CN(c2ccc(Nc3cc(-c4ccc5cc(C#N)cnn45)ncc3C(=O)NC[C@@H](F)C(C)(C)O)cn2)CCO1` [Example 887, methyl (((S)-4-(5-((2-(3-cyanopyrrolo[1,2-b]pyridazin-7-yl)-5-(((R)-2-fluoro-3-hydroxy-3-methylbutyl)carbamoyl)pyridin-4-yl)amino)pyridin-2-yl)morpholin-2-yl)methyl)carbamate] had an IC50 of 0.001 µM. Further, in the assay with TNFα, the EC50 is 0.088 µM.

On to `COC(=O)Nc1ccc(Nc2cc(-c3ccc4cc(C#N)cnn34)ncc2C(=O)NC[C@@H](F)C(C)(C)O)cn1` [Example 888, methyl (R)-(5-((2-(3-cyanopyrrolo[1,2-b]pyridazin-7-yl)-5-((2-fluoro-3-hydroxy-3-methylbutyl)carbamoyl)pyridin-4-yl)amino)pyridin-2-yl)carbamate], for which, at IRAK4 enzyme, the IC50 is < 0.001 µM. Besides, the EC50 with TNFα turned out to be 0.021 µM.

Compound `CC(=O)N1CC[C@H]1CNc1cc(-c2ccc3cc(C#N)cnn23)ncc1C(=O)NC[C@@H](F)C(C)(C)O` [Example 889, 4-((((S)-1-acetylazetidin-2-yl)methyl)amino)-6-(3-cyanopyrrolo[1,2-b]pyridazin-7-yl)-N-((R)-2-fluoro-3-hydroxy-3-methylbutyl)nicotinamide] registered an IC50 at IRAK4 enzyme of 0.009 µM. Also, the EC50 in the assay on TNFα worked out at 0.436 µM.

The compound `COC(=O)N1CC[C@H]1CNc1cc(-c2ccc3cc(C#N)cnn23)ncc1C(=O)NC[C@@H](F)C(C)(C)O` [Example 890, (S)-methyl 2-(((2-(3-cyanopyrrolo[1,2-b]pyridazin-7-yl)-5-(((R)-2-fluoro-3-hydroxy-3-methylbutyl)carbamoyl)pyridin-4-yl)amino)methyl)azetidine-1-carboxylate] showed an IC50 at IRAK4 enzyme of 0.014 µM. In addition, in the assay with TNFα, the EC50 turned out to be 0.357 µM.

Regarding `CC(C)(O)[C@H](F)CNC(=O)c1cnc(-c2ccc3cc(C#N)cnn23)cc1NC[C@@H]1CCN1CC(F)(F)F` [Example 891, 6-(3-cyanopyrrolo[1,2-b]pyridazin-7-yl)-N-((R)-2-fluoro-3-hydroxy-3-methylbutyl)-4-((((S)-1-(2,2,2-trifluoroethyl)azetidin-2-yl)methyl)amino)nicotinamide], half-maximal inhibition against IRAK4 enzyme (IC50) required 0.004 µM. Besides, the EC50 with TNFα was determined as 0.249 µM.

At IRAK4 enzyme, `CC(=O)N1CC[C@@H]1CNc1cc(-c2ccc3cc(C#N)cnn23)ncc1C(=O)NC[C@@H](F)C(C)(C)O` [Example 892, 4-((((R)-1-acetylazetidin-2-yl)methyl)amino)-6-(3-cyanopyrrolo[1,2-b]pyridazin-7-yl)-N-((R)-2-fluoro-3-hydroxy-3-methylbutyl)nicotinamide] displayed an IC50 of 0.003 µM. In the assay on TNFα, the EC50 came to 0.808 µM.

On IRAK4 enzyme, `COC(=O)N1CC[C@@H]1CNc1cc(-c2ccc3cc(C#N)cnn23)ncc1C(=O)NC[C@@H](F)C(C)(C)O` [Example 893, (R)-methyl 2-(((2-(3-cyano-pyrrolo[1,2-b]pyridazin-7-yl)-5-(((R)-2-fluoro-3-hydroxy-3-methylbutyl)carbamoyl)pyridin-4-yl)amino)methyl)azetidine-1-carboxylate] gave an IC50 of 0.002 µM. Further, the EC50 with TNFα amounted to 0.217 µM.

In the case of `CC(C)(O)[C@H](F)CNC(=O)c1cnc(-c2ccc3cc(C#N)cnn23)cc1NC[C@H]1CCN1CC(F)(F)F` [Example 894, 6-(3-cyanopyrrolo[1,2-b]pyridazin-7-yl)-N-((R)-2-fluoro-3-hydroxy-3-methylbutyl)-4-((((R)-1-(2,2,2-trifluoroethyl)azetidin-2-yl)methyl)amino)nicotinamide], at IRAK4 enzyme, inhibition was half-maximal at 0.007 µM (IC50). Also, in the assay with TNFα, the EC50 is 0.245 µM.

Compound `CC(C)(O)[C@H](F)CNC(=O)c1cnc(-c2ccc3cc(C#N)cnn23)cc1NC1CC2(CNC2)C1` [Example 895, (R)-4-(2-azaspiro[3.3]heptan-6-ylamino)-6-(3-cyanopyrrolo[1,2-b]pyridazin-7-yl)-N-(2-fluoro-3-hydroxy-3-methyl-butyl)nicotinamide] came in with an IC50 against IRAK4 enzyme of 0.002 µM. Also, in the assay on TNFα, the EC50 was found to be 1 µM.

Take `N#CCNC(=O)c1cnc(-c2ccc3cc(C#N)cnn23)cc1Nc1cnn([C@H]2CCNC2)c1` [Example 896, (S)-N-(cyanomethyl)-6-(3-cyanopyrrolo[1,2-b]pyridazin-7-yl)-4-((1-(pyrrolidin-3-yl)-1H-pyrazol-4-yl)amino) nicotinamide]: the IC50 against IRAK4 enzyme is < 0.001 µM. In addition, the EC50 with TNFα was determined as 0.048 µM.

In the case of `COC(=O)N1CC2(CC(Nc3cc(-c4ccc5cc(C#N)cnn45)ncc3C(=O)NC[C@@H](F)C(C)(C)O)C2)C1` [Example 897, (R)-methyl 6-((2-(3-cyano-pyrrolo[1,2-b]pyridazin-7-yl)-5-((2-fluoro-3-hydroxy-3-methylbutyl)carbamoyl)pyridin-4-yl)amino)-2-azaspiro[3.3]heptane-2-carboxylate], at IRAK4 enzyme, the IC50 was found to be 0.002 µM. In addition, the EC50 in the assay on TNFα amounted to 0.421 µM.

The record behind these values is patent US10336762B2 (priority 2017, dated 2019).
